In ChEMBL document CHEMBL3879914, “Inhibitors of central nervous system vasoactive inhibitory peptide receptor 2” (2014):

Key:
[1] = molecular target: T1, Vasoactive intestinal polypeptide receptor 2 (Homo sapiens) (UniProt P41587); assay: (§1) Antagonist activity at recombinant human N-terminal signal peptide/FLAG epitope-tagged VIPR2 expressed in HEK293 cells co-expressing CAMYEL assessed as inhibition of VIP-induced cAMP accumulation at 0.5 uM preincubated for 5 mins with luciferin, coelenterazine H followed by VIP addition measured after 5 mins by BRET assay relative to control; format: functional, cell-based
T1 sequence (whole entry): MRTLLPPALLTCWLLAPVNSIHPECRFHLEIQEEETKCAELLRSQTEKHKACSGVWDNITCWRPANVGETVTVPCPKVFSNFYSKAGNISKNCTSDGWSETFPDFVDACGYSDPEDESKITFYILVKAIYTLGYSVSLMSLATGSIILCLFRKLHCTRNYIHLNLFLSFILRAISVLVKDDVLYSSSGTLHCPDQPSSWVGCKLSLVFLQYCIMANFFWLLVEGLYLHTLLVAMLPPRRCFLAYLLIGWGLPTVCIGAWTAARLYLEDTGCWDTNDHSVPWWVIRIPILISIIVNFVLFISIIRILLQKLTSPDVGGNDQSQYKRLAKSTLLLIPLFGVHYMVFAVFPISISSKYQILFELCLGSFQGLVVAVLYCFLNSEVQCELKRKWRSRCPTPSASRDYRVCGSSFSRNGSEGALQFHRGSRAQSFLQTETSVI

[2] = molecular target: T1, Vasoactive intestinal polypeptide receptor 2 (Homo sapiens); assay: as §1, with “5” for “0.5”; format: functional, cell-based
[3] = molecular target: T1, Vasoactive intestinal polypeptide receptor 2 (Homo sapiens); assay: as §1, with “1” for “0.5”; format: functional, cell-based
[4] = molecular target: T1, Vasoactive intestinal polypeptide receptor 2 (Homo sapiens); assay: as §1, with “epitope-tagged Rluc8-fused” for “epitope-tagged”, “cells” for “cells co-expressing CAMYEL”, “human mVenus-beta-arrestin2 binding” for “cAMP accumulation”, “5” for “0.5”; format: cell-based
[5] = molecular target: T1, Vasoactive intestinal polypeptide receptor 2 (Homo sapiens); assay: as §1, with “epitope-tagged Rluc8-fused” for “epitope-tagged”, “cells” for “cells co-expressing CAMYEL”, “human mVenus-beta-arrestin2 binding” for “cAMP accumulation”, “1” for “0.5”; format: cell-based
[6] = molecular target: T1, Vasoactive intestinal polypeptide receptor 2 (Homo sapiens); assay: as §1, with “epitope-tagged Rluc8-fused” for “epitope-tagged”, “cells” for “cells co-expressing CAMYEL”, “human mVenus-beta-arrestin2 binding” for “cAMP accumulation”; format: cell-based

Row | inhibition [1] [%] | inhibition [2] [%] | inhibition [3] [%] | inhibition [4] [%] | inhibition [5] [%] | inhibition [6] [%] | SMILES
1 | 5.7 | 16 | 7.5 | 9.8 | 8.1 | -2.7 to 12.9 | O=C(NC1Cc2ccccc2C1)[C@H](Cc1ccccc1)C[C@H](O)CNS(=O)(=O)c1ccc([N+](=O)[O-])cc1
2 | 14.4 | 26.5 | 16 | 17.2 | 20.1 | 11.3 to 21.9 | O=C(Cc1cccc(Cl)c1)NC[C@@H](O)C[C@@H](Cc1ccccc1)C(=O)N[C@H]1c2ccccc2C[C@H]1O
3 | 9.3 | 13 | 10.7 | 14.7 | 23.4 | 11.1 to 13.8 | O=C(NCCc1cccc(Cl)c1)[C@@H](Cc1ccccc1)C[C@H](O)CNS(=O)(=O)c1ccc([N+](=O)[O-])cc1
4 | 20.6 | 41.1 | 21.6 | 0.6 | 30.2 | 17.6 to 20.9 | Cc1cc(S(=O)(=O)NC[C@@H](O)C[C@@H](Cc2ccccc2)C(=O)N[C@H]2c3ccccc3C[C@H]2O)c(C)cc1Cl
5 | 6.5 | 7.4 | 19.6 | 20.2 | 27.9 | 13.8 to 36.8 | C[C@H](CC(C)(C)C)NC(=O)[C@@H](Cc1ccccc1)C[C@H](O)CNS(=O)(=O)c1ccc([N+](=O)[O-])cc1
6 | -0.9 | -7.3 | 2 | 4.3 | 1.1 | -1.5 to -0.8 | CNc1ccc(S(=O)(=O)NC[C@@H](O)C[C@@H](Cc2ccccc2)C(=O)N[C@H]2c3ccccc3C[C@H]2O)cc1
7 | -8.7 | -5.8 | -8.7 | 9.7 | 0.2 | 0.5 to 1.95 | CC(=O)Nc1ccc(S(=O)(=O)NC[C@H](C[C@@H](Cc2ccccc2)C(=O)N[C@H]2c3ccccc3C[C@H]2OC(C)=O)OC(C)=O)cc1
8 | 33.9 | 93.8 | 45.9 | 89.4 | 76.7 | 54.1 to 91.6 | COc1ccc(S(=O)(=O)NC[C@@H](O)C[C@@H](Cc2ccccc2)C(=O)N[C@H]2c3ccccc3C[C@H]2O)cc1
9 | 7 | 9.3 | 8.3 | 3.2 | 4 | 6.25 to 6.9 | CNC(=O)[C@H](Cc1ccccc1)C[C@H](O)CNS(=O)(=O)c1ccc([N+](=O)[O-])cc1
10 | -2.1 | 4.7 | -4.9 | 9.2 | 17.1 | 6.95 to 17.4 | O=C(NC1CCCC1)[C@H](Cc1ccccc1)C[C@H](O)CNS(=O)(=O)c1ccc([N+](=O)[O-])cc1
11 | 2.5 | 31.8 | 5.9 | -1.2 | 3.1 | 0.3 to 15.3 | CCN(CC)C(=O)c1ccc(S(=O)(=O)NC[C@@H](O)C[C@@H](Cc2ccccc2)C(=O)N[C@H]2c3ccccc3C[C@H]2O)cc1
12 | 11.8 | 13.5 | 11 | -4 | 7.4 | 4.75 to 19.9 | O=C(NC[C@@H](O)C[C@@H](Cc1ccccc1)C(=O)N[C@H]1c2ccccc2C[C@H]1O)c1cccc([N+](=O)[O-])c1
13 | 20.8 | 26.6 | 20.2 | 25.8 | 16.1 | 26.2 to 45.8 | C#CCCCC(=O)NC[C@@H](O)C[C@@H](Cc1ccccc1)C(=O)N[C@H]1c2ccccc2C[C@H]1O
14 | -4.3 | 3 | 32.3 | 10.5 | -1.8 | -9.8 to 6.75 | CC(=O)Nc1ccc(S(=O)(=O)NC[C@H](C[C@@H](Cc2ccccc2)C(=O)N[C@H]2c3ccccc3C[C@H]2O)OC(C)=O)cc1
15 | 27.3 | 93.1 | 43.6 | 90.4 | 59.5 | 38.5 to 91.8 | N#Cc1ccc(S(=O)(=O)NC[C@@H](O)C[C@@H](Cc2ccccc2)C(=O)N[C@H]2c3ccccc3C[C@H]2O)cc1
16 | 15.2 | 16.4 | 13.5 | -6.3 | -5.7 | -6.8 to 5.05 | O=C(NC[C@@H](O)C[C@@H](Cc1ccccc1)C(=O)N[C@H]1c2ccccc2C[C@H]1O)c1cccnc1

Row | inhibition [1] [%] | inhibition [2] [%] | inhibition [3] [%] | inhibition [4] [%] | inhibition [5] [%] | inhibition [6] [%] | SMILES
17 | 15.6 | 9.3 | 20 | 18 | 37.2 | 13.7 to 29.6 | COc1cc(C(=O)NC[C@@H](O)C[C@@H](Cc2ccccc2)C(=O)N[C@H]2c3ccccc3C[C@H]2O)cc(OC)c1OC
18 | 21.6 | 27.4 | 16.7 | 11.9 | 5.2 | 10.2 to 19.6 | CC(C)CNc1ccc(S(=O)(=O)NC[C@@H](O)C[C@@H](Cc2ccccc2)C(=O)N[C@H]2c3ccccc3C[C@H]2O)cc1
19 | 9.2 | 6 | 12.3 | 4.7 | 3.3 | -0.9 to 5.35 | O=C(NN1CCCCC1)[C@@H](Cc1ccccc1)C[C@H](O)CNS(=O)(=O)c1ccc([N+](=O)[O-])cc1
20 | -0.4 | 20.6 | 5.9 | -5.5 | 2.9 | -0.4 to 7.55 | CCCCNC(=O)c1ccc(S(=O)(=O)NC[C@@H](O)C[C@@H](Cc2ccccc2)C(=O)N[C@H]2c3ccccc3C[C@H]2O)cc1
21 | -1.1 | -2.9 | -1.3 | 24.2 | 4.4 | 1.8 to 10.7 | O=C(NCc1ccccc1)[C@H](Cc1ccccc1)C[C@H](O)CNS(=O)(=O)c1ccc([N+](=O)[O-])cc1
22 | 10.7 | 23.2 | 16 | 7.8 | 11.3 | 15.5 to 16.2 | CC(C)(C)c1ccc(C(=O)NC[C@@H](O)C[C@@H](Cc2ccccc2)C(=O)N[C@H]2c3ccccc3C[C@H]2O)cc1
23 | 9.4 | -3.4 | -1.4 | 8.7 | -1.6 | 2.65 to 4.2 | CN(C)c1ccc(S(=O)(=O)NC[C@@H](O)C[C@@H](Cc2ccccc2)C(=O)N[C@H]2c3ccccc3C[C@H]2O)cc1
24 | 15.2 | 19.1 | 19.1 | 4.2 | 4.9 | -1.2 to 11.7 | CC(=O)Nc1ccc(S(=O)(=O)NC[C@@H](O)C[C@@H](Cc2ccccc2)C(=O)N[C@H]2c3ccccc3C[C@H]2O)cc1
25 | 8.4 | 33.3 | 18.6 | 6.7 | -5.5 | -5.6 to 20 | Nc1ccc(S(=O)(=O)NC[C@@H](O)C[C@@H](Cc2ccccc2)C(=O)N[C@H]2c3ccccc3C[C@H]2O)cc1
26 | -3.8 | 2.4 | -1.6 | -1.2 | 8.9 | -4.3 to 0.6 | O=C([C@H](Cc1ccccc1)C[C@H](O)CNS(=O)(=O)c1ccc([N+](=O)[O-])cc1)N1CCOCC1
27 | 3.1 | 13.5 | 7.3 | 7 | 3.4 | 3.3 to 10.2 | C#CCNC(=O)[C@@H](Cc1ccccc1)C[C@H](O)CNS(=O)(=O)c1ccc([N+](=O)[O-])cc1
28 | 18.4 | 19.6 | 18.3 | 20 | 17.4 | 9.5 to 19.8 | O=C(NC[C@@H](O)C[C@@H](Cc1ccccc1)C(=O)N[C@H]1c2ccccc2C[C@H]1O)C(Cl)Cl
29 | 18.4 | 21.3 | 15.2 | 33.4 | 35.1 | 24.2 to 27.4 | O=C(N[C@H]1c2ccccc2C[C@H]1O)[C@H](Cc1ccccc1)C[C@H](O)CNS(=O)(=O)c1cccc([N+](=O)[O-])c1
30 | 16.4 | 15.9 | 18.2 | 21.1 | 24.3 | 18.5 to 19.2 | O=C(CCCCl)NC[C@@H](O)C[C@@H](Cc1ccccc1)C(=O)N[C@H]1c2ccccc2C[C@H]1O
31 | 10.8 | 19.1 | 19.1 | 11.3 | 2.3 | 2.8 to 15.2 | CCCCCNc1ccc(S(=O)(=O)NC[C@@H](O)C[C@@H](Cc2ccccc2)C(=O)N[C@H]2c3ccccc3C[C@H]2O)cc1
